Experiments:
Assay type in all cases: cell-based, human
Conditions in all cases: for β-Gal: liposome-DNA complex, with serum
T98-G cells = assay: pCMV-β-Gal plasmid DNA transfection mediated by ST1223 cationic liposomes, β-galactosidase by ELISA, T98-G cells
Method: (§1) Liposomes were prepared starting with 200 mg of ST1223, synthesised according to the procedure described in EXAMPLE 1 and solubilised in 50 mL of chloroform (solubilisation phase). The solvent was then eliminated under vacuum for one night (t 30-40° C.; 400-700 mm Hg). The sample was hydrated with deionised water to a final concentration of 5 mM (hydration phase). The liposomes were then subjected to sonication for 1 h at 10-second intervals using a sonication bath. The liposomes thus prepared produced unilaminar vesicles.
(§2) The liposome-DNA complex was prepared by mixing the two solutions A and B described here below:
(§3) Solution A: 2.5 μg of plasmid DNA (pCMV/β- Gal, 7200 base pairs, used for the expression of the enzyme β-galactosidase) were diluted sterilely in 50 μl of HBS (HEPES 20 mM; NaCl 150 mM, pH 7.4)
(§4) Solution B: the liposome, prepared according to EXAMPLE 7, was diluted in distilled H2O to a concentration of 1.29 mM and 15 μL of this solution were diluted in 50 µL of distilled H2O).
(§5) The two solutions were mixed by stirring gently and incubated for 10-30 min at room temperature.
(§6) pCMV-β-Gal DNA transfection mediated by cationic liposomes in the various cell lines HeLa, MCF-7, Caco2, and T98-G was performed at different cell densities: 100,000 cells/dish 200.000 cells/dish and 300.000 cells/dish.
(§7) HeLa, MCF-7, Caco2 and T98-G cells were grown for 48 h (37° C., 5% CO2) in the following growth media:
T98-G cells EMEM (Essential Minimum Eagle Medium, SIGMA catalogue), 10% fetal calf serum, 1% L-glutamine, 1% streptomycin, 1% penicillin.
(§8) Cells were plated at different densities (100.000 cells/dish, 200.000 cells/dish, 300.000 cells/dish) in Petri dishes (Corning or Falcon) measuring approximately 3 cm in diameter and incubated in 2 mL of medium for 18 h before being treated.
(§9) After replacing the medium with 2 mL of fresh medium, […] of the liposome-DNA complex, prepared as described in EXAMPLE 8, were added to each dish; after gentle stirring, the dishes were placed in a thermostat for 5 h (37° C., 5% CO2). Later, the cells were washed three times with 5 mL PBS buffer (Gibco catalogue) per dish and incubated for 16 h (37° C., 5% CO2).
(§10) After washing the cells three times with 5 mL PBS buffer (Gibco catalogue) per dish, total proteins were extracted and 50 μg of these were loaded per well in order to determine β-galactosidase production by immunoassay (β-Gal ELISA Kit, Boehringer).

MCF-7 cells = assay: pCMV-β-Gal plasmid DNA transfection mediated by ST1223 cationic liposomes, β-galactosidase by ELISA, MCF-7 cells
Method: as §1, §2, §3, §4, §5, §6, §7
MCF-7 cells DMEM (Dulbecco Modified Eagle Medium, SIGMA catalogue), 10% fetal calf serum, 1% L-glutamine, 1% streptomycin, 1% penicillin
as §8, §9, §10

HeLa cells = assay: pCMV-β-Gal plasmid DNA transfection mediated by ST1223 cationic liposomes, β-galactosidase by ELISA, HeLa cells
Method: as §1, §2, §3, §4, §5, §6, §7
HeLa cells RPMI-1640 (HyQ catalogue), 10% fetal calf serum, 1% L-glutamine, 1% streptomycin, 1% penicillin
as §8, §9, §10

Caco2 cells = assay: pCMV-β-Gal plasmid DNA transfection mediated by ST1223 cationic liposomes, β-galactosidase by ELISA, Caco2 cells
Method: as §1, §2, §3, §4, §5, §6, §7
Caco2 cells EMEM (Essential Minimum Eagle Medium, SIGMA catalogue), 15% fetal calf serum, 1% L-glutamine, 1% streptomycin, 1%, penicillin
as §8, §9, §10

With `CCCCCCCCCCC(=O)O[C@H](CC(=O)OCCC(F)(F)C(F)(F)C(F)(F)C(F)(F)C(F)(F)C(F)(F)C(F)(F)C(F)(F)F)C[N+](C)(C)C.[Cl-]` [ST1223, undecanoyl-L-carnitine chloride 1,1H-2,2H-hepatdecafluorodecyl ester] the “cell density of greatest transfection efficiency” value (from here on “cell density”) (T98-G cells) was 300.000 cells/dish, the β-Gal (T98-G cells; density 100.000 cells/dish) was 126 pg/dish and the β-Gal (T98-G cells; density 200.000 cells/dish) was 330 pg/dish. For the same compound, the β-Gal (T98-G cells; density 300.000 cells/dish) was 491 pg/dish, the “cell density” value (MCF-7 cells) was 200.000 cells/dish and the β-Gal (MCF-7 cells; density 100.000 cells/dish) was 234 pg/dish. For the same compound, the β-Gal (MCF-7 cells; density 200.000 cells/dish) was 422 pg/dish, the β-Gal (MCF-7 cells; density 300.000 cells/dish) was 409 pg/dish and the “cell density” value (HeLa cells) was 200.000 cells/dish. The β-Gal (HeLa cells; density 100.000 cells/dish) was 87 pg/dish, the β-Gal (HeLa cells; density 200.000 cells/dish) was 303 pg/dish and the β-Gal (HeLa cells; density 300.000 cells/dish) was 83 pg/dish. For the same compound, the “cell density” value (Caco2 cells) was 100.000 cells/dish, the β-Gal (Caco2 cells; density 100.000 cells/dish) was 422 pg/dish and the β-Gal (Caco2 cells; density 200.000 cells/dish) was 395 pg/dish. For the same compound, the β-Gal (Caco2 cells; density 300.000 cells/dish) was 385 pg/dish.

Reference: US6476243B1, “Perfluorinated esters of alkanoyl L-carnitine for the preparation of cationic lipids for the intracellular delivery of pharmacologically active compounds” (Sigma-Tau Industrie Farmaceutiche Riunite S.p.A., priority 1998, dated 2002)
